This is an account of results in PubChem BioAssay (NCI).

Some test systems named below: A498 renal; BT-549 breast; CAKI-1 renal; CCRF-CEM leukemia; HCC-2998 colon; HL-60(TB) leukemia; HT29 colon; IGROV1 ovarian; LOX IMVI melanoma; MDA-MB-231 breast; OVCAR-4 ovarian; RPMI-8226 leukemia; SK-MEL-28 melanoma; SR leukemia; SW-620 colon; T-47D breast; U251 CNS; UACC-257 melanoma.
Assay in all cases: growth of human tumour cells (NCI), 48 h

Molecules are shown by their SMILES. Several values for one entry are separate records, joined by “and”; a condition that tells them apart may be missing. Equal values may be shown once.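 Protocol summary: plate cells (96-well), add compound at 5 concentrations, incubate 48 h, interpolate endpoints linearly. At the GI50, growth is halved. The concentration for full growth arrest is given as TGI.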 Where only a bound is given, the exact number is not on record here.

Regarding `COC(=O)CCC(=O)NC1=C(Nc2ccc(OC)cc2)C(=O)c2ccccc2C1=O`, the TGI in the experiment on A498 renal is 33.6 µM; with BT-549 breast it was 29 µM; in the experiment on CAKI-1 renal it was 40.2 µM; in the experiment on CCRF-CEM leukemia, above 85.2 µM; in the experiment with HCC-2998 colon, 35.7 µM; in the experiment on HL-60(TB) leukemia, above 68 µM. Besides, the TGI in the experiment with HT29 colon amounted to 30.1 µM; in the experiment on IGROV1 ovarian, 26 µM; with LOX IMVI melanoma it was 16.1 µM; in the experiment on MDA-MB-231 breast it was 27.3 µM; in the experiment on OVCAR-4 ovarian it was 24.7 µM; in the experiment on RPMI-8226 leukemia, 75.2 µM. For the same molecule, the TGI is 31.4 µM with SK-MEL-28 melanoma; above 75.9 µM in the experiment on SR leukemia; 29.7 µM in the experiment with SW-620 colon; 40.4 µM in the experiment on T-47D breast; 57.5 µM in the experiment with U251 CNS; 16.1 µM in the experiment on UACC-257 melanoma.

For the molecule `C[C@H](CCC(=O)NCCS(=O)(=O)O)[C@H]1CC[C@H]2[C@@H]3CC[C@@H]4C[C@H](O)CC[C@]4(C)[C@H]3CC[C@]12C`, the TGI in the experiment on A498 renal, in the experiment with BT-549 breast, in the experiment on CAKI-1 renal, in the experiment on CCRF-CEM leukemia, in the experiment with HCC-2998 colon and in the experiment on HL-60(TB) leukemia was above 100 µM in each case. Also, the TGI with HT29 colon, in the experiment on IGROV1 ovarian, in the experiment on LOX IMVI melanoma, in the experiment with MDA-MB-231 breast, in the experiment on OVCAR-4 ovarian and in the experiment with RPMI-8226 leukemia was above 100 µM throughout. The TGI with SK-MEL-28 melanoma, in the experiment on SR leukemia, in the experiment on SW-620 colon, in the experiment with T-47D breast, in the experiment on U251 CNS and in the experiment on UACC-257 melanoma was above 100 µM each time.

As for `Nc1nc(Cl)c(N)c(NCC2(CO)CC(OCc3ccccc3)C2)n1` (configuration not stated), the TGI with A498 renal, in the experiment on BT-549 breast, in the experiment with CAKI-1 renal, in the experiment with CCRF-CEM leukemia, in the experiment on HCC-2998 colon and in the experiment on HL-60(TB) leukemia was above 100 µM throughout. The TGI in the experiment on HT29 colon, in the experiment on IGROV1 ovarian, in the experiment with LOX IMVI melanoma, in the experiment with MDA-MB-231 breast, in the experiment on OVCAR-4 ovarian and in the experiment on RPMI-8226 leukemia was above 100 µM each time. Also, the TGI in the experiment on SK-MEL-28 melanoma, in the experiment with SR leukemia, with SW-620 colon, in the experiment on T-47D breast, with U251 CNS and in the experiment on UACC-257 melanoma was above 100 µM throughout.

Regarding `C[C@]12CC[C@H]3[C@@H](CC=C4C[C@@H](N5CCCC5)CC[C@@]43C)[C@@H]1C[C@H](N1CCOCC1)[C@@H]2O`, the TGI in the experiment with A498 renal, in the experiment with BT-549 breast, with CAKI-1 renal, in the experiment on CCRF-CEM leukemia, with HCC-2998 colon and in the experiment on HL-60(TB) leukemia was above 100 µM in each case. Moreover, the TGI in the experiment with HT29 colon was above 100 µM; with IGROV1 ovarian, above 100 µM; with LOX IMVI melanoma, above 10 µM; in the experiment on MDA-MB-231 breast it was above 100 µM; in the experiment on OVCAR-4 ovarian, above 100 µM; in the experiment with RPMI-8226 leukemia it was above 100 µM. The TGI was above 100 µM with SK-MEL-28 melanoma; 71.5 µM with SR leukemia; above 100 µM with SW-620 colon; above 100 µM in the experiment with T-47D breast; above 100 µM in the experiment on U251 CNS; above 100 µM with UACC-257 melanoma.

Take `CCCN(CCCC(NC(C)=O)C(=O)NCc1ccccc1)C(=O)N(CCCl)N=O` (configuration not stated): the TGI came to 31.1 µM with A498 renal; 54.1 µM in the experiment on BT-549 breast; 62.4 µM in the experiment on CAKI-1 renal; 76.8 µM in the experiment on CCRF-CEM leukemia; 26.4 µM in the experiment with HCC-2998 colon; 30.6 µM with HL-60(TB) leukemia. Moreover, the TGI in the experiment with HT29 colon was above 66.7 µM; in the experiment with IGROV1 ovarian, 57.3 µM; in the experiment with LOX IMVI melanoma it was 31.5 µM; with MDA-MB-231 breast, above 100 µM; with OVCAR-4 ovarian, above 85 µM; with RPMI-8226 leukemia, 69 µM. Further, the TGI was 35.1 µM with SK-MEL-28 melanoma; 17.5 µM with SR leukemia; 49.7 µM in the experiment on SW-620 colon; above 100 µM in the experiment on T-47D breast; 20.1 µM in the experiment on U251 CNS; 47.6 µM with UACC-257 melanoma.

Turning to `CCSc1sc(=Nc2ccc(N=c3sc(C)c(SC)s3)cc2)sc1-c1ccc(C)cc1`, the TGI in the experiment with A498 renal, with BT-549 breast, with CAKI-1 renal, in the experiment on CCRF-CEM leukemia, in the experiment on HCC-2998 colon and with HL-60(TB) leukemia was above 100 µM in each case. Further, the TGI in the experiment on HT29 colon, in the experiment with IGROV1 ovarian, in the experiment with LOX IMVI melanoma, in the experiment on MDA-MB-231 breast, in the experiment on OVCAR-4 ovarian and in the experiment with RPMI-8226 leukemia was above 100 µM each time. In addition, the TGI in the experiment on SK-MEL-28 melanoma, in the experiment on SR leukemia, in the experiment with SW-620 colon, in the experiment with T-47D breast, in the experiment on U251 CNS and in the experiment with UACC-257 melanoma was above 100 µM in each case.

Regarding `COc1ccc2c(CCN)c(C(=O)O)[nH]c2c1`, the TGI with A498 renal, in the experiment on BT-549 breast, in the experiment on CAKI-1 renal, in the experiment with CCRF-CEM leukemia, in the experiment on HCC-2998 colon and with HL-60(TB) leukemia was above 100 µM throughout. Further, the TGI with HT29 colon, in the experiment with IGROV1 ovarian, in the experiment on LOX IMVI melanoma, in the experiment on MDA-MB-231 breast, with OVCAR-4 ovarian and with RPMI-8226 leukemia was above 100 µM throughout. In addition, the TGI with SK-MEL-28 melanoma is above 100 µM; in the experiment on SR leukemia, above 43.7 µM; in the experiment with SW-620 colon, above 100 µM; in the experiment on T-47D breast it was above 100 µM; in the experiment with U251 CNS, above 100 µM; in the experiment on UACC-257 melanoma, above 100 µM.

In the case of `S=C(NC1=NCC(CN2CCN(c3ccccc3)CC2)O1)Nc1ccccc1` (configuration not stated), the TGI in the experiment on A498 renal, with BT-549 breast, in the experiment on CAKI-1 renal, in the experiment on CCRF-CEM leukemia, with HCC-2998 colon and in the experiment with HL-60(TB) leukemia was above 100 µM throughout. The TGI is above 100 µM in the experiment with HT29 colon; above 100 µM with IGROV1 ovarian; 61.8 µM in the experiment on LOX IMVI melanoma; above 100 µM in the experiment on MDA-MB-231 breast; above 100 µM with OVCAR-4 ovarian; above 100 µM in the experiment on RPMI-8226 leukemia. Besides, the TGI with SK-MEL-28 melanoma, in the experiment with SR leukemia, in the experiment with SW-620 colon, in the experiment on T-47D breast, in the experiment on U251 CNS and in the experiment with UACC-257 melanoma was above 100 µM in each case.

On to `CN(CCn1cnc2c1c(=O)n(C)c(=O)n2C)C1CCCCC1`, for which the TGI with A498 renal, in the experiment on BT-549 breast, in the experiment with CAKI-1 renal, in the experiment with CCRF-CEM leukemia, with HCC-2998 colon and with HL-60(TB) leukemia was above 100 µM each time. For the same molecule, the TGI in the experiment on HT29 colon, with IGROV1 ovarian, in the experiment on LOX IMVI melanoma, in the experiment with MDA-MB-231 breast, with OVCAR-4 ovarian and in the experiment on RPMI-8226 leukemia was above 100 µM each time. In addition, the TGI in the experiment on SK-MEL-28 melanoma, in the experiment on SR leukemia, in the experiment with SW-620 colon, in the experiment on T-47D breast, in the experiment with U251 CNS and in the experiment with UACC-257 melanoma was above 100 µM in each case.

In the case of `CC(=O)OC(/C=C/c1ccccc1)P1(=O)N(CC(C)(C)C)[C@@H]2CCCC[C@H]2N1CC(C)(C)C` (some centres not stated), the TGI in the experiment on A498 renal was 21.8 µM; in the experiment with BT-549 breast, 28.5 µM and 25.9 µM; in the experiment on CAKI-1 renal it was 31.3 µM and 23.6 µM; in the experiment on CCRF-CEM leukemia, 47.8 µM and 34.1 µM; with HCC-2998 colon, 16.1 µM and 8.6 µM; with HL-60(TB) leukemia it was 21.6 µM and 18.7 µM. For the same molecule, the TGI was 17.6 µM and 15.6 µM in the experiment on HT29 colon; 19.6 µM and 19.3 µM with IGROV1 ovarian; 24 µM and 24.5 µM in the experiment on LOX IMVI melanoma; 24.4 µM and 20.4 µM with MDA-MB-231 breast; 20.5 µM and 19.7 µM with OVCAR-4 ovarian; 12.1 µM in the experiment on RPMI-8226 leukemia. Besides, the TGI in the experiment on SK-MEL-28 melanoma is 34.4 µM and 28.5 µM; with SR leukemia, 19.5 µM and 14.5 µM; with SW-620 colon it was 31.3 µM and 20.7 µM; in the experiment with T-47D breast, 9.04 µM and 6.4 µM; in the experiment on U251 CNS it was 22.6 µM and 19.7 µM; in the experiment with UACC-257 melanoma, 13.2 µM and 11.6 µM. Further, the GI50 in the experiment with T-47D breast was 2.9 µM and 1.18 µM.

For `COc1ccc2nc3ccc(OC)cc3c(SCCO)c2c1`, the TGI with A498 renal is above 100 µM; in the experiment with BT-549 breast, above 100 µM; in the experiment with CAKI-1 renal, above 100 µM; in the experiment on CCRF-CEM leukemia it was above 31.1 µM; in the experiment with HCC-2998 colon, above 100 µM; in the experiment with HL-60(TB) leukemia it was 19.9 µM. In addition, the TGI with HT29 colon was above 48.2 µM; in the experiment with IGROV1 ovarian it was above 51.1 µM; in the experiment on LOX IMVI melanoma, above 63 µM; in the experiment with MDA-MB-231 breast, above 100 µM; in the experiment with OVCAR-4 ovarian, above 100 µM; in the experiment on RPMI-8226 leukemia, 48.9 µM. Further, the TGI is above 100 µM in the experiment on SK-MEL-28 melanoma; above 79.1 µM in the experiment on SR leukemia; above 100 µM in the experiment with SW-620 colon; above 100 µM with T-47D breast; above 100 µM in the experiment with U251 CNS; above 100 µM with UACC-257 melanoma.

Take `O=S(=O)(O)c1cc(O)c2c(N=Cc3ccccc3O)cc(S(=O)(=O)O)cc2c1`: the TGI with A498 renal, in the experiment with BT-549 breast, with CAKI-1 renal, with CCRF-CEM leukemia, in the experiment on HCC-2998 colon and in the experiment with HL-60(TB) leukemia was above 100 µM throughout. Moreover, the TGI in the experiment with HT29 colon, in the experiment on IGROV1 ovarian, in the experiment on LOX IMVI melanoma, in the experiment with MDA-MB-231 breast, with OVCAR-4 ovarian and in the experiment with RPMI-8226 leukemia was above 100 µM throughout. Besides, the TGI in the experiment on SK-MEL-28 melanoma, with SR leukemia, in the experiment with SW-620 colon, in the experiment on T-47D breast, with U251 CNS and in the experiment with UACC-257 melanoma was above 100 µM in each case.
